Laboratory results from the supplement of paper PMC10307832.

Legend:
Test in all cases: relative viability (nuclei count vs DMSO), 5 days (fraction); higher = more cells survive
[1] = compound: COc1cccc2cc(-c3nc([C@H]4CC[C@H](C(=O)O)CC4)n4ncnc(N)c34)[nH]c12 [OSI-027] + NC(=O)Nc1cc(-c2cccc(F)c2)sc1C(=O)N[C@H]1CCCNC1 [AZD7762] (partner 0.2 µM)
Summary of the method: (§1)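 Lung cancer cell lines were pin-tool dosed in 1536-well plates on the day after seeding, with either a lone drug or a fixed anchor-drug dose plus five library-drug doses (not always all listed) in √10 steps. Nuclei were counted on 4× images after 5 days. Relative viability is the ratio of treated-well to vehicle-well nuclei counts, with each value a median of duplicate plates.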

[2] = compound: CCCS(=O)(=O)Nc1ccc(F)c(C(=O)c2c[nH]c3ncc(-c4ccc(Cl)cc4)cc23)c1F [Vemurafenib] + Nc1nc2[nH]cc(CCc3ccc(C(=O)N[C@@H](CCC(=O)O)C(=O)O)cc3)c2c(=O)[nH]1 [Pemetrexed] (partner 0.2 µM)
Summary of the method: as §1

[3] = compound: CCCS(=O)(=O)Nc1ccc(F)c(C(=O)c2c[nH]c3ncc(-c4ccc(Cl)cc4)cc23)c1F [Vemurafenib] + O=C(c1cc(Cc2n[nH]c(=O)c3ccccc23)ccc1F)N1CCN(C(=O)C2CC2)CC1 [Olaparib] (partner 8 µM)
Summary of the method: as §1

[4] = compound: Cc1nc(NC(=O)N2CCC[C@H]2C(N)=O)sc1-c1ccnc(C(C)(C)C(F)(F)F)c1 [Alpelisib] + COc1cccc2cc(-c3nc([C@H]4CC[C@H](C(=O)O)CC4)n4ncnc(N)c34)[nH]c12 [OSI-027] (partner 0.5 µM)
Summary of the method: as §1

Cell Line	relative viability ([1]; first compound 0.01 µM)	relative viability ([1]; first compound 0.03162 µM)	relative viability ([1]; first compound 0.1 µM)	relative viability ([1]; first compound 0.3162 µM)	relative viability ([1]; first compound 1 µM)	relative viability ([2]; first compound 0.03162 µM)	relative viability ([2]; first compound 0.1 µM)	relative viability ([2]; first compound 0.3162 µM)	relative viability ([2]; first compound 1 µM)	relative viability ([3]; first compound 0.03162 µM)	relative viability ([3]; first compound 0.1 µM)	relative viability ([3]; first compound 0.3162 µM)	relative viability ([3]; first compound 1 µM)	relative viability ([4]; first compound 0.04 µM)	relative viability ([4]; first compound 0.1265 µM)	relative viability ([4]; first compound 0.4 µM)	relative viability ([4]; first compound 1.265 µM)	relative viability ([4]; first compound 4 µM)
201T	0.562	0.691	0.585	0.472	0.511	0.375	0.378	0.322	0.283	0.828	0.806	0.86	0.828	0.811	0.566	0.661	0.471	0.402
A549										0.315	0.323	0.186	0.249					
A-427	0.676	0.52	0.557	0.541	0.399	0.866	0.918		1.1	0.71	0.663		0.701	0.509	0.411	0.456	0.351	0.308
ABC-1	0.886	0.764	0.728	0.555	0.602					1.12	0.8	0.6	0.93	0.475	0.347	0.418	0.283	0.356
BEN	0.698	0.604	0.435	0.464	0.463	0.627	0.832	0.445	0.619	0.971	0.992	0.653	1.06	0.295	0.299	0.276	0.315	0.245
CAL-12T	0.626	0.741	0.603	0.668	0.585	1.16	1.15	1.52	1.17	0.686	0.663	0.83	0.829	0.67	0.449	0.823	0.411	0.403
COR-L23						0.195	0.198	0.186	0.181	0.332	0.353	0.298	0.341	0.81	0.713	0.938	0.566	0.492
COR-L 105						0.939		1.2	1.05	0.617		0.742	0.734	0.715	0.567	0.846	0.527	0.513
Calu-6											0.593	0.549	0.471					
ChaGo-K-1	0.912	0.902	0.936	0.836	0.756	0.247	0.267	0.261	0.274	0.404	0.4	0.49	0.382	0.543	0.592	0.49	0.394	0.342
EBC-1										0.451	0.657	0.723	0.649					
EKVX	0.694	0.726	0.666	0.692	0.562	0.379		0.405	0.442	0.891		0.898	0.911	0.594	0.531	0.773	0.496	0.356
EMC-BAC-2	1.05	1.14	0.833	0.791	0.63	0.447	0.475	0.358	0.437	0.444	0.528	0.352	0.369	0.368	0.329	0.334	0.285	0.218
EPLC-272H	0.262	0.212	0.162	0.0961	0.124	0.319	0.336	0.396	0.328	0.717	0.742	0.834	0.867	0.214	0.268	0.274	0.23	0.195
H3255	0.888	0.958	0.714	0.832	0.613	0.551		0.515	0.566	0.497		0.519	0.556	0.526	0.583	0.635	0.363	0.384
HARA	0.27	0.301	0.36	0.419	0.365	0.24	0.234	0.2	0.246	0.761	0.289	0.899	0.942	0.396	0.287	0.48	0.255	0.164
HCC-15	1.14	1.21	1.19	1.28	0.986	0.227	0.226	0.209	0.222	0.699	0.669	0.606	0.522	0.623	0.563	0.589	0.484	0.339
HCC-44	0.984	1.03	1.03	1.06	1.1	0.617	0.609	0.654	0.625	0.985	0.992	0.992	0.99	0.519	0.419	0.541	0.307	0.451
HCC-78	0.62	0.638	0.488	0.499	0.354	0.925	0.922	0.932	0.921	0.73	0.784	1.13	0.881	0.378	0.306	0.324	0.335	0.318
HCC-366	0.393	0.325	0.216	0.285	0.217	0.178	0.166		0.151	0.343	0.304		0.388	0.867	0.877	0.762	0.473	0.355
HCC-827	0.194	0.201	0.195	0.205	0.214	0.273		0.287	0.238	0.624		0.65	0.632	0.808	0.803	0.689	0.57	0.384
